Each structure is given as a SMILES string.

This data set is described as follows: Human HepG2 cell viability assay in 384 well format. The class given is toxicity, cell-based. The arrangement: dose 125 nL, time 70.5 hour; cytotoxicity at 70.5 h: concentration not given beside the values. As to conditions: HepG2 cells, read-out: Inhibition.

On to `COc1ccccc1CNC(=O)CS(=O)(=O)Cc1ccccc1`, for which the cytotoxicity at 70.5 h was -3.93%.
The same measure for `CCOC1(C)C(=O)c2ccccc2N1Nc1ccccc1C(=O)CC` (stereo not drawn): -14.4%; for `O=C(CCCC(=O)NCc1cccc(Br)c1)NCCN1CCCC1`: 1.2%; for `COc1cc(CNc2ccc(Cl)cc2)ccc1OCC(=O)O`: -19.8%.
The same measure for `O=C(COCC(=O)N(c1ccccc1)c1ccccc1)N1CCCCC1`: 19.2%; for `COc1cc(CNc2ccccc2Cl)ccc1OCC(=O)O`: 19%; for `CCN1CCN(S(=O)(=O)c2cc(C)c(C)cc2Br)CC1`: -6.61%.
Then `CC(C)C(=O)Nc1cccc(C(=O)Nc2ccccn2)c1`, with -25.2%.
With `Cc1cc(C)cc(NC(=O)Nc2c(O)oc3ccccc3c2=O)c1`, the cytotoxicity at 70.5 h is -6.68%.
The same measure for `CCOC(=O)c1sc(NC(=O)C(C)(C)C)c(C#N)c1C`: 41.6%.
Then `O=C(NCCCN1CCOCC1)c1cccc(OCc2ccccc2)c1`, with -2.84%; and `Nc1nnnn1NCc1ccccc1C(F)(F)F`, with -8.4%.
Then `CN(C)c1ccc(CC2CCN(c3cnccn3)C2)nn1` (stereo not drawn), with -8.95%.
Regarding `NC(=O)CN1CCCCC1c1ccc(-n2ccnc2)nc1` (stereo not drawn), the cytotoxicity at 70.5 h was -3.85%.
As to `Cc1cc(N2CCOC(c3ccncn3)C2)ncn1` (stereo not drawn), the cytotoxicity at 70.5 h is -0.0886%.
Then `CN(C)C(=O)c1cccc(C2CCN(c3ncccn3)CC2)n1`, with -4.03%; and `Cc1ccnc(NC(=O)c2cncc(C3CCNCC3)n2)c1`, with -10.4%.
Then `COc1ccc(CC2CN(C(=O)c3coc(C)n3)CCO2)cc1` (stereo not drawn), with -9.96%; and `Cc1nc(C(=O)N2CCOC(Cc3ccc(F)cc3)C2)co1` (stereo not drawn), with -3.27%.
The same measure for `CC(=O)N1CCC(c2[nH]ncc2S(C)(=O)=O)CC1`: -5.52%.
As to `Cc1nccc(CC2COCCN(c3cnccn3)C2)n1` (stereo not drawn), the cytotoxicity at 70.5 h came out at 22.7%.
On to `Cc1c(NC(=O)CN2CCC(Oc3cnccn3)CC2)cnn1C`, for which the cytotoxicity at 70.5 h is -3.61%.
In the case of `Cc1nonc1CN(C)Cc1cnn(-c2ccc(Cl)cc2)c1`, the cytotoxicity at 70.5 h was -3.48%.
Take `O=C(CC1CCN(CCc2ccccc2)CC1)NC1CCOCC1`: the cytotoxicity at 70.5 h was -1.43%.
Take `O=C(NCc1ccc2c(c1)OCO2)[C@@H]1C=CCN1c1ncccn1`: the cytotoxicity at 70.5 h was -1.63%.
The same measure for `O=C(NCc1ccc2c(c1)OCO2)[C@H]1C=CCN1c1ncccn1`: -4.63%; for `Cc1nn(C)cc1C1=NS(=O)(=O)N(C)C(C(=O)Nc2ccc(Cl)cc2)=C1`: 1.32%; for `Cc1cc(-c2ccc(=O)n(C3CCN(C(=O)C4CC4)CC3)n2)c(C)o1`: -2.33%.
For the molecule `Cc1cccc(Nc2ccc(C3CCCCN3)cn2)n1` (stereo not drawn), the cytotoxicity at 70.5 h was found to be 4.51%.
Then `Cc1cc(C)nc(Nc2ccc(C3CCCCN3)cn2)n1` (stereo not drawn), with 18.8%; and `c1cnc(Nc2ccc(C3CCCCN3)cn2)cn1` (stereo not drawn), with -5.51%.
Then `Cc1cc(N2CCC(Cc3ccncc3)C2)ncn1` (stereo not drawn), with -3.38%; and `CC(C)N1CCC(c2cccc(C(=O)N(C)C)n2)CC1`, with 24.4%; and `CN(C)c1ccc(CC2CCCN(c3cnccn3)C2)nn1` (stereo not drawn), with -6.12%.
With `CCn1cc(S(=O)(=O)N2CCCC3(CC=CNC3=O)C2)c(C)n1` (stereo not drawn), the cytotoxicity at 70.5 h was -1.52%.
The same measure for `Fc1cc(F)cc(CN2CCC(c3cc4ncccc4cn3)CC2)c1`: 1.34%; for `CCCn1cc(C(=O)NCc2nnc(-c3ccc(C)nc3)o2)c(C)n1`: -1.21%.
Turning to `Cc1nc(N(C)C)cc(C2(C)CCNCC2)n1`, the cytotoxicity at 70.5 h was -1.8%.
Then `Cc1nc(C2CCN(C(C)C)CC2)sc1Br`, with -2.12%; and `CNc1cccc(C2CN(C(=O)CNS(C)(=O)=O)CCO2)n1` (stereo not drawn), with 13%; and `CCCn1ncc(CN(Cc2cccnc2)Cc2cccs2)c1C`, with 21.4%.
Turning to `Cc1nccnc1CCC1COCCN1C(=O)CCc1c(C)noc1C` (stereo not drawn), the cytotoxicity at 70.5 h turned out to be 15.5%.
Regarding `O=C(c1ccc(=O)[nH]n1)N1CCCC(O)(CN2CCC(F)(F)CC2)CC1` (stereo not drawn), the cytotoxicity at 70.5 h was -8.65%.
The same measure for `COc1ccccc1CN1CCCC(Cc2nccnc2N)C1` (stereo not drawn): -8.24%; for `CN(C(=O)c1ccccc1F)[C@@H]1CC[C@@H](O)[C@@H]1O`: -5.24%.
Regarding `CC(=O)N1CCOC(c2cncc(CCC(=O)N(C)C)n2)C1` (stereo not drawn), the cytotoxicity at 70.5 h is 5%.
On to `CC(C)c1nccn1-c1nccnc1C1CCCN1Cc1ccccc1` (stereo not drawn), for which the cytotoxicity at 70.5 h was -6.32%.
On to `C[C@@H]1CN2C[C@H](O)CC2CN1Cc1ccncc1` (stereo partly drawn), for which the cytotoxicity at 70.5 h was -3.16%.
The same measure for `O=C(NCC1(O)COCCN(Cc2cccc(O)c2)C1)c1ccccn1` (stereo not drawn): -5.55%; for `Cc1cc(N2CCC(Cc3cccnc3)C2)ncn1` (stereo not drawn): -3.49%.
Take `NCc1cnn(-c2ccccc2C(=O)N2CCCC(C(N)=O)C2)c1` (stereo not drawn): the cytotoxicity at 70.5 h was -2.72%.
Then `Cc1cc(-c2cncnc2)nc(C2CCCN2S(C)(=O)=O)n1` (stereo not drawn), with -2.87%; and `CC(C)OCC(=O)N1CCC(c2ncncc2-c2ccnc(N)c2)C1` (stereo not drawn), with -5.98%; and `CCC(=O)N1CCCC1c1nc(N(C)C)ncc1-c1ccc(Cl)cc1` (stereo not drawn), with 2.05%.
The same measure for `Cc1ncsc1CN1CCOC(C)(C(=O)N2CCOCC2)C1` (stereo not drawn): -2.94%; for `Cc1cccc(CN2CCCC2c2cncc(Nc3nncs3)n2)c1` (stereo not drawn): 2.33%.
Consider `CNc1cc(C2CCCN2C(=O)CCc2ccccc2F)ccn1` (stereo not drawn), for which the cytotoxicity at 70.5 h is -2.87%.
The same measure for `Cc1nc(C)c(C(=O)N2CCCC2(C)C(=O)NC2CCCC2)o1` (stereo not drawn): 8.88%; for `O=C1CN(Cc2ccc3ccccc3n2)CCN1C1CCCC1`: -1.73%.
The same measure for `CCC(=O)N1CCC(c2ncncc2C)CC1`: -1.94%.
Then `OCC(CO)N1CCC(c2nccnc2Nc2cnccn2)CC1`, with -2.76%; and `CC(C)C(C(=O)O)c1cccc(Cl)c1` (stereo not drawn), with -7.66%.
`CNC(=O)Cc1ccc(NC(=O)NCc2ncc(C)s2)cc1`: the cytotoxicity at 70.5 h turned out to be 8.85%.
Then `COc1cc(Br)c(S(=O)(=O)NC(=O)C(C)OC)cc1OC` (stereo not drawn), with -6.11%.
Then `CCn1cnnc1CCNC(=O)c1ccc(F)c(Br)c1`, with -12.1%; and `CCC(=O)c1cccc(S(=O)(=O)NC(C)C#N)c1` (stereo not drawn), with -11%.
Then `CN(C)S(=O)(=O)N1CCC(C(O)c2ccc(Cl)cc2)CC1` (stereo not drawn), with -10.4%.
With `CCN(Cc1cccc2c1OCCO2)C(=O)NC(C)(C)C`, the cytotoxicity at 70.5 h was -2.31%.
The same measure for `Cc1cc(NC(=O)N2CCC[C@@H]2CO)nn1-c1ccccc1Cl`: -7.9%.
Then `CC(C)Cc1cc(C(=O)N2CCC(N3CCCC3)CC2)cc(O)n1`, with -12.3%; and `Cc1cc(NC(=O)N2CCC[C@@H]2CO)nn1-c1cccc(Cl)c1`, with -8.23%.
Then `CC(OCC1CC1)C(=O)Nc1ccn(Cc2ccccc2)n1` (stereo not drawn), with -7.82%; and `O=C(NCCCn1ccnc1)C1COCC(=O)N1Cc1ccccc1` (stereo not drawn), with -16%.
In the case of `COCC1CCN(C(=O)c2cc(O)nc(CC(C)C)c2)CC1`, the cytotoxicity at 70.5 h was -7.27%.
Then `CC(=O)N(C)C(c1cccnc1)c1ccc(F)c(F)c1` (stereo not drawn), with 23.1%; and `Cc1ccnc(NC(=O)c2cc(C)oc2C)c1`, with 4.63%.
Then `Cc1ccnc(NC(=O)c2ccc(Cl)o2)c1`, with -9.97%; and `CCN(CC(=O)Nc1cc(C(C)(C)C)no1)Cc1ccc(Cl)s1`, with -3.4%; and `O=S(=O)(CCCn1cncn1)Cc1ccc(F)cc1Cl`, with -8.31%.
Regarding `Cc1cnc(C(=O)NCC2Cc3ccccc3O2)cn1` (stereo not drawn), the cytotoxicity at 70.5 h stood at 1.1%.
For the molecule `CS(=O)(=O)N1CCC(C(=O)Nc2nnc(C(F)(F)F)[nH]2)CC1`, the cytotoxicity at 70.5 h is -6.85%.
The same measure for `CC(C(=O)N1CCOCC1)S(=O)(=O)Cc1noc(C(C)(C)C)n1` (stereo not drawn): 7.07%; for `CC(NC(=O)c1ccoc1)C(=O)N(C)Cc1cccc(C(F)(F)F)c1` (stereo not drawn): 9.42%.
The same measure for `CC(c1ccco1)N(C(=O)COc1ccc(C#N)cc1)C1CC1` (stereo not drawn): -6.31%.
Then `CC(c1ccco1)N(C(=O)c1cccc(C#N)c1)C1CC1` (stereo not drawn), with -5.03%.
For `CCOc1nnc(CN2CCC(c3nc4ccccc4[nH]3)CC2)s1`, the cytotoxicity at 70.5 h is 1.06%.
The same measure for `CC(c1nc(-c2ccccc2)no1)N1CC(n2cccn2)C1` (stereo not drawn): -4.14%; for `CN(C)S(=O)(=O)c1ccc(F)c(NC(=O)COCC2CC2)c1`: -10.8%; for `CC(C)(C)SCC(=O)Nc1cc(-n2nnnc2C2CC2)ccc1F`: 10.5%.
Then `CCOCC(=O)Nc1cc(-n2nnnc2C2CC2)ccc1F`, with 0.6%; and `Cc1cnn(CC(=O)Nc2cc(-n3nnnc3C3CC3)ccc2F)c1`, with -7.79%; and `CCN(CC)S(=O)(=O)NC(=O)c1cc(C)n(-c2ccccc2)n1`, with 10.6%.
Turning to `CCCS(=O)(=O)NC(=O)c1cc(C)n(-c2ccccc2)n1`, the cytotoxicity at 70.5 h was determined as 7.41%.
Then `CCOc1ccccc1CCNC(=O)NCC(O)c1cccs1` (stereo not drawn), with -4.36%; and `CN1CCCc2cc(-c3cncn3CCNC3CCS(=O)(=O)C3)ccc21` (stereo not drawn), with -4.36%; and `O=S1(=O)CCC(NCCn2cncc2-c2ccc3c(c2)CCCO3)C1` (stereo not drawn), with -8.18%.
Then `c1cncc(CNCc2cccs2)c1`, with 26%; and `Fc1ccc(F)c(CN2CCC(c3cc4ncccc4cn3)CC2)c1`, with 4.59%; and `Fc1cccc(CN2CCC(c3cc4ncccc4cn3)CC2)c1F`, with 4.71%.
On to `NCC1CCC(c2c(C(=O)NCCO)sc3ccccc23)CC1` (stereo not drawn), for which the cytotoxicity at 70.5 h stood at 16.1%.
The same measure for `CCS(=O)(=O)N1CCc2c(nc(C3CCCN3)nc2NC)C1` (stereo not drawn): 18.6%.
`NC(=O)CCc1cccc(C2CCNCC2)n1`: the cytotoxicity at 70.5 h stood at 1.83%.
As for `COCCNC(=O)C(C)N1CCN(C)CC1` (stereo not drawn), the cytotoxicity at 70.5 h is -5.18%.

Values taken from ChEMBL document CHEMBL3507680, “University of Dundee, Gates Library screen for HepG2 cell viability”.
